According to the supplement of paper PMC12463676, “Small-molecule dissolution of stress granules by redox modulation benefits ALS models” (Nature Chemical Biology, 2025):

Columns and labels:
lipoamide = compound: NC(=O)CCCCC1CCSS1 [lipoamide]; assay: thermal stability z-score vs DMSO; higher = more thermally stabilized by treatment; conditions: HeLa, lipoamide concentration 100 µM
Protocol: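 Cellular thermal proteome profiling in HeLa cells. Cells were treated with 100 µM lipoamide for 1 h, with or without 1 mM arsenate for a further 1 h, then heated to ten temperatures (37-66.3 °C), and soluble protein was quantified by TMT mass spectrometry relative to 0.1% DMSO controls. The thermal stability score (sum of log2 fold changes minus the abundance score) was transformed to a z-score; mean of n = 3 experiments.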

potassium arsenate = compound: O=[As]([O-])(O)O.[K+] [potassium arsenate]; assay: as above; conditions: HeLa; arsenate concentration 1 mM
Protocol: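 Cellular thermal proteome profiling in HeLa cells treated with 1 mM arsenate for 1 h (DMSO pretreatment), heated to ten temperatures (37-66.3 °C). Soluble protein was quantified by TMT mass spectrometry relative to DMSO controls; the thermal stability score was transformed to a z-score; mean of n = 3 experiments.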

[1] = arsenate co-treatment: 1 mM arsenate 1 h
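Also: each temperature applied for 3 min, abundance score taken as mean log2 fold change at the two lowest temperatures, z-score obtained by mean subtraction and division by SD.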

Sequence of UniProt O15078 (O15078 whole entry): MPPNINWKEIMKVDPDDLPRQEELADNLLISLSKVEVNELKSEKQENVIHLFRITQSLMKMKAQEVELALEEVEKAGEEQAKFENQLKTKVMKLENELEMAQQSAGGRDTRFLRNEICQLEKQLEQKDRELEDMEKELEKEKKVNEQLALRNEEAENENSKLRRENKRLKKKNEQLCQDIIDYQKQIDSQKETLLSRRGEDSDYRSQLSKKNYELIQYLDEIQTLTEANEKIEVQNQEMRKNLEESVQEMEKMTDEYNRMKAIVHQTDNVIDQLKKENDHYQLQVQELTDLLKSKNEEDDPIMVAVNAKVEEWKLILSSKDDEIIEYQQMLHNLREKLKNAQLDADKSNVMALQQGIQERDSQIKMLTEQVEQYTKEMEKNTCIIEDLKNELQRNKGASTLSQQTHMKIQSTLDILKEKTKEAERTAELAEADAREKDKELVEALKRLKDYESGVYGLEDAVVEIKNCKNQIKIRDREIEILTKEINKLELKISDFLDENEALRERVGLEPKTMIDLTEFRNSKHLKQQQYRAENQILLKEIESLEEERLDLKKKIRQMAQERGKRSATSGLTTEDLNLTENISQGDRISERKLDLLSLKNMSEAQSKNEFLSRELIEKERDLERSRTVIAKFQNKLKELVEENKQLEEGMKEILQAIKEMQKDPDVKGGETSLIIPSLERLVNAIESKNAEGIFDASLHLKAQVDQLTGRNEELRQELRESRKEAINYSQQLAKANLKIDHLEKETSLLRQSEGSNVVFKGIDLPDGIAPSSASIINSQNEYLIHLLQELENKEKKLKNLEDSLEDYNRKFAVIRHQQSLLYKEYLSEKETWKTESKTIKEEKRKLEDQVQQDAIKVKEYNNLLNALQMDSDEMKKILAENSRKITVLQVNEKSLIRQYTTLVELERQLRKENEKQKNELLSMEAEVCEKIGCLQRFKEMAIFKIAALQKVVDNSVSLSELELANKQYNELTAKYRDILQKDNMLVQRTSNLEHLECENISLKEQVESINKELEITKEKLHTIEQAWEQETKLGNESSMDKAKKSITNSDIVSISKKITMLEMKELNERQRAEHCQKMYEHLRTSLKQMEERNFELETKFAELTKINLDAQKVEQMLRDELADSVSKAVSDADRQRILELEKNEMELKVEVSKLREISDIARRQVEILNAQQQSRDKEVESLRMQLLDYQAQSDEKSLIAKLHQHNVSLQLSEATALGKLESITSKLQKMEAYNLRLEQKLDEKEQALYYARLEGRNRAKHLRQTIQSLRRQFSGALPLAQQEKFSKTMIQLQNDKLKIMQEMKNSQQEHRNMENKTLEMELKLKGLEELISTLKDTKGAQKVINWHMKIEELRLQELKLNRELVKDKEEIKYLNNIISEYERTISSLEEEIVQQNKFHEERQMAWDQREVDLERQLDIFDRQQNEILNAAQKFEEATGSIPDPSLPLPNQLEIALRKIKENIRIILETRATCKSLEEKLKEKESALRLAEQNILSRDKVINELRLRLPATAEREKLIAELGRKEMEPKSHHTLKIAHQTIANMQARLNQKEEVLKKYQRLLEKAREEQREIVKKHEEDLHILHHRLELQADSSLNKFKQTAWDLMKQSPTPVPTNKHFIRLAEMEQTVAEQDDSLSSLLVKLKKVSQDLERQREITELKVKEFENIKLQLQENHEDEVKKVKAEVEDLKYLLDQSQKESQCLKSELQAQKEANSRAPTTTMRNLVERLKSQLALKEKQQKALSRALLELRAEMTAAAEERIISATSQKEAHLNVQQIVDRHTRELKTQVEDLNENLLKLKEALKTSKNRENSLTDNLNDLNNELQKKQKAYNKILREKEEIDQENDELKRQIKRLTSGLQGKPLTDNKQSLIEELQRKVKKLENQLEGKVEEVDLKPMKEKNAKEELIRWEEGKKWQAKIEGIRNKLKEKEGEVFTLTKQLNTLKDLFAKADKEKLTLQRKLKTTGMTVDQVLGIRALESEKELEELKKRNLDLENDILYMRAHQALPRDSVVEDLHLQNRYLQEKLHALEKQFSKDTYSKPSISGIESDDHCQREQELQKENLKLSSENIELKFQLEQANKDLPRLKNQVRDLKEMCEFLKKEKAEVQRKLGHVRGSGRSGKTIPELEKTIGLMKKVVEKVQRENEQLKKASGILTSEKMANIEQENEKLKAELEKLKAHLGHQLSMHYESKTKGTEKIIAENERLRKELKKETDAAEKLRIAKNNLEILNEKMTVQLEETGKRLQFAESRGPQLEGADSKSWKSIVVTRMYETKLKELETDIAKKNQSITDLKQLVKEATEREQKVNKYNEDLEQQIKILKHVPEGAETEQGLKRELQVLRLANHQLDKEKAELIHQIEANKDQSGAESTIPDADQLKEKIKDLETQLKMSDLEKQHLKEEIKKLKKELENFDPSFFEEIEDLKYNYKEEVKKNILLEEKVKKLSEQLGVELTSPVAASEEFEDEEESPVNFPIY
Sequence of UniProt P48637 (P48637 whole entry): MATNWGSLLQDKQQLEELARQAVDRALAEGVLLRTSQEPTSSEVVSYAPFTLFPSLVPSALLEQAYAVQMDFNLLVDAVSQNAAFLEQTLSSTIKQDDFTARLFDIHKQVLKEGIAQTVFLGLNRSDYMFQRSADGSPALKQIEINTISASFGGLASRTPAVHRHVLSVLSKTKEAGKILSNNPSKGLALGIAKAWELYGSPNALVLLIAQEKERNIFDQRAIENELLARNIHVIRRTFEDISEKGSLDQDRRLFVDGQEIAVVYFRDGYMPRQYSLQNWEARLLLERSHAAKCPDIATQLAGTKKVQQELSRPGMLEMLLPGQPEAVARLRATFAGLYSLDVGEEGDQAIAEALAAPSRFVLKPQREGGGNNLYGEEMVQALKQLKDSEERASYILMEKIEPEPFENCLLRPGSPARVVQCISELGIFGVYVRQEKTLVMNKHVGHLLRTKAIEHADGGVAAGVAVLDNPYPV
Sequence of UniProt Q9UHN1 (Q9UHN1 whole entry): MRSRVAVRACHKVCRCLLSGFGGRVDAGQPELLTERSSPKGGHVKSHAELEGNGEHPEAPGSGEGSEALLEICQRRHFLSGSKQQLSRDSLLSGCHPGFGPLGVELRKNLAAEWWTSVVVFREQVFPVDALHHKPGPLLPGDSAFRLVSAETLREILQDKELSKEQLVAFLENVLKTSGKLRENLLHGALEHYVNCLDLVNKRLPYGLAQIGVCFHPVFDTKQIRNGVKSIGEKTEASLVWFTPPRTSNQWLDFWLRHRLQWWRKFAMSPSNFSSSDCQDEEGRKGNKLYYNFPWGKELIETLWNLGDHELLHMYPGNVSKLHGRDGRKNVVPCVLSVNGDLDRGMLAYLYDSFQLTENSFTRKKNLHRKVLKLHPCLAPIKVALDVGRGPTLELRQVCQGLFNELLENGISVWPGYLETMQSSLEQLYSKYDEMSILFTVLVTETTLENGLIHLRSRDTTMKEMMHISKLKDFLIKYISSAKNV
Sequence of UniProt O75380 (O75380 whole entry): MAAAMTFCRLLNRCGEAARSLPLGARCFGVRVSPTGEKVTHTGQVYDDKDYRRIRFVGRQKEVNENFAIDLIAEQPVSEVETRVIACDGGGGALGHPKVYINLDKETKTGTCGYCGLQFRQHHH
Sequence of UniProt Q92585 (Q92585 whole entry): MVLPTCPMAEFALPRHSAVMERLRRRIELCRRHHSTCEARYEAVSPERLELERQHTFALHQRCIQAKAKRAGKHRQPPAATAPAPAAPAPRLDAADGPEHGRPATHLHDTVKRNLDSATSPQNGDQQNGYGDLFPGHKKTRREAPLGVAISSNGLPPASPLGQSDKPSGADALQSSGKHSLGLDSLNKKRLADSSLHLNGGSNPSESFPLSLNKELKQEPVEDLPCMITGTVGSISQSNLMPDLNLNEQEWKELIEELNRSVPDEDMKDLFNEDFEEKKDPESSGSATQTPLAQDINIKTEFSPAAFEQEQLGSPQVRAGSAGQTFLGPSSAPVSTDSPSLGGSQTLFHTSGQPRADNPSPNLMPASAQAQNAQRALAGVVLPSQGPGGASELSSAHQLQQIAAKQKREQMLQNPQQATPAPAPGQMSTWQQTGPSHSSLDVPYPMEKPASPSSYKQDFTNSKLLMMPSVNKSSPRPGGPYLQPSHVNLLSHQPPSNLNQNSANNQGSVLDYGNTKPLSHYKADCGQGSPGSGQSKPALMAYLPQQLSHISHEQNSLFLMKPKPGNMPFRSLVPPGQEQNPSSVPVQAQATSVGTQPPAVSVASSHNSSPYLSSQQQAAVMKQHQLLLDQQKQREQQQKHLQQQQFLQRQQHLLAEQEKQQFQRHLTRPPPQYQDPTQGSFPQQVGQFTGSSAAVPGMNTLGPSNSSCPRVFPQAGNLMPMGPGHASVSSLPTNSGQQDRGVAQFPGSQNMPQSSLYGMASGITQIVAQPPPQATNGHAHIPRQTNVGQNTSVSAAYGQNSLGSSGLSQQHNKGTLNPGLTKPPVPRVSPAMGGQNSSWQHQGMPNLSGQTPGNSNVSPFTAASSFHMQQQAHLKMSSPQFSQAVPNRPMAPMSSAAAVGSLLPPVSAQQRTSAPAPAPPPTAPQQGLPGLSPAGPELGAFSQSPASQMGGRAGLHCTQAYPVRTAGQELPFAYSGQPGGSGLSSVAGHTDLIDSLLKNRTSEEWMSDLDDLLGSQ
Sequence of UniProt P16401 (P16401 whole entry): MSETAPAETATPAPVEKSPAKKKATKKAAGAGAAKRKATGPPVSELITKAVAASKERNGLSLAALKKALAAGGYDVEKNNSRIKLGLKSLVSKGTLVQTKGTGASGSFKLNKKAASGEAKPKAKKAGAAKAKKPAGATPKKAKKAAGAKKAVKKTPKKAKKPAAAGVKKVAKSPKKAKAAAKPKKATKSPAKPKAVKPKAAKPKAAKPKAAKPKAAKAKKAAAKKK
Sequence of UniProt P23025 (P23025 whole entry): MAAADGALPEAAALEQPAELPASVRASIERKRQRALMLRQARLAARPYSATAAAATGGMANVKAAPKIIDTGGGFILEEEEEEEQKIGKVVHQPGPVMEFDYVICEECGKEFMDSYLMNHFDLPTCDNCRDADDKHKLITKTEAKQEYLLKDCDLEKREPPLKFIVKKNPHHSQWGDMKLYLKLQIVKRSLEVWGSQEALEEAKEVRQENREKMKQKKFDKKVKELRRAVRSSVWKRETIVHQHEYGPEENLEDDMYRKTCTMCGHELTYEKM

Target	thermal stability z-score (lipoamide; [1])	thermal stability z-score (lipoamide; arsenate co-treatment: none)	thermal stability z-score (potassium arsenate)
METTL2A (UniProt Q96IZ6)	0.394	0.528	-0.0971
ATAD3B (UniProt Q5T9A4)	-0.338	-0.0604	0.607
BRD8 (UniProt Q9H0E9)	0.111	-0.0134	-1.06
DDX28 (UniProt Q9NUL7)	-0.0583	0.0995	0.0334
XPA (UniProt P23025)	0.0325	0.0998	-0.0786
POLG2 (UniProt Q9UHN1)	0.00241	-0.266	-0.833
DDX5 (UniProt P17844)	0.954	1.43	-1.9
KDM5C (UniProt P41229)	0.0486	-0.0414	-0.2
RNMT (UniProt O43148)	0.428	0.541	0.381
SEC23B (UniProt Q15437)	1.19	0.766	0.645
C9ORF64 (UniProt Q5T6V5)	-0.191	0.121	-0.254
HNRNPR (UniProt O43390)	0.306	-0.456	-1.96
EPHX1 (UniProt P07099)	3.16	3.19	0.24
PWP2 (UniProt Q15269)	-0.256	0.154	0.864
NFAT5 (UniProt O94916)	0.48	0.0594	1.37
YTHDC2 (UniProt Q9H6S0)	-0.0971	-0.734	-0.0852
PMPCA (UniProt Q10713)	-0.137	-0.112	0.0736
VPS37A (UniProt Q8NEZ2)	0.0547	0.243	0.0736
PSMD5 (UniProt Q16401)	0.166	0.024	0.282
LGALS1 (UniProt P09382)	0.596	0.255	-0.756
CUX1	0.393	0.589	0.272
CKAP2 (UniProt Q8WWK9)	-0.00358	0.0789	-0.222
LLGL2 (UniProt Q6P1M3)	-0.179	-0.122	-0.318
MAML1 (UniProt Q92585)	0.141	0.017	1.03
ABHD17B (UniProt Q5VST6)	-0.119	0.135	-0.595
GAPDH (UniProt P04406)	-1.1	-0.00491	-1.5
NSUN4 (UniProt Q96CB9)	-0.26	0.337	-0.318
COMMD4 (UniProt Q9H0A8)	-0.113	-0.32	-0.322

Target	thermal stability z-score (lipoamide; [1])	thermal stability z-score (lipoamide; arsenate co-treatment: none)	thermal stability z-score (potassium arsenate)
PTPN11 (UniProt Q06124)	0.431	0.267	-0.559
RBM25 (UniProt P49756)	-0.0516	0.34	-0.454
CEBPB (UniProt P17676)	-0.261	-1.23	-0.856
TXNDC5 (UniProt Q8NBS9)	-2.16	-1.86	0.0646
ANAPC10 (UniProt Q9UM13)	0.0276	-0.149	-0.183
HIST1H1B (UniProt P16401)	1.01	0.679	1.19
MT (UniProt Q8IVS2)	-0.281	-0.555	-0.404
GSS (UniProt P48637)	-0.2	-0.141	-0.183
TBC1D10B (UniProt Q4KMP7)	-0.825	-0.121	-0.503
NDUFS6 (UniProt O75380)	-0.253	0.123	-0.244
SETDB1 (UniProt Q15047)	-0.239	-0.253	-0.254
SVIL (UniProt O95425)	0.00545	0.00211	0.279
MCL1 (UniProt Q07820)	0.483	0.838	1.27
SQRDL (UniProt Q9Y6N5)	-0.541	-1.81	-1.36
ZNF330 (UniProt Q9Y3S2)	-0.367	-0.417	-0.558
RAVER2 (UniProt Q9HCJ3)	0.204	0.253	-0.0887
FDPS (UniProt P14324)	-0.000727	-0.16	-0.437
UBE2E3 (UniProt Q969T4)	0.196	-0.0847	1.92
RNASEH2B (UniProt Q5TBB1)	0.719	0.517	-0.161
GCAT (UniProt O75600)	-0.752	-1.04	1.38
QARS	-0.515	-0.706	-0.289
SMAP1 (UniProt Q8IYB5)	-0.131	-0.152	-0.139
SGPP1 (UniProt Q9BX95)	0.332	-0.299	-0.0282
CEP290 (UniProt O15078)	0.613	0.238	0.0798
UBE2I (UniProt P63279)	-0.334	0.315	0.137
TTC27 (UniProt Q6P3X3)	-0.686	-0.257	0.24
KCTD1 (UniProt Q719H9)	1.16	0.0871	-1.07
